Source: patent US20240041976A1, “COMPOSITION AND USE” (priority 2020, published 2024)
Where two headings read alike, the source gives them in different places. No end group written: not given here.

Tests used:
[1] = test system: MRSA ATCC 33521-lux; test: Agar plate spot assay, resistance development (FIG. 4); assay type: cell-based, Staphylococcus aureus; conditions: up to 72 h incubation at 37° C.
Experimental: Pure GarKS and PenG each at 50 μg, MP1 at 0.1 μg, were applied at the indicated spots. The pictures of the plates were taken after 24, 48 and 72 h of incubation at 37° C. Sections of the inhibition zones on the right show resistance development seen as small white dots (in the inhibition zones of GarKS and MP1).

[2] = test system: S.a. 3255; test: Planktonic cell growth inhibition assay (MIC50, liquid culture); assay type: cell-based, Staphylococcus aureus; conditions: for MIC50: individual component
Experimental: (§1) Growth inhibition assays were performed in 96-well microtiter plates as described previously (Chi and Holo, 2018, supra). Briefly, 135 μl of TSB were dispensed in each well of a microtiter plate (according to the number of bacterial strains tested) except in the wells of the first row. The antimicrobials were diluted in TSB to working concentrations in a final volume of 285 μl and dispensed in the wells of the first row. The working concentrations were 100 μg/μl for garvicin KS, 10 μg/μl for micrococcin P1 and 1 mg/ml for penicillin G. From the first row, 150 μl of the antimicrobials were then serially diluted (two-fold dilutions) in a sequential fashion until the last row of the plate. Finally, 15 μl of a fresh O/N culture of each strain were added in the appropriate wells to reach a final volume of 150 μl in each well. The plates were then incubated at 37° C. for 24 h. The growth inhibition was expressed as minimum inhibitory concentration (MIC50), which refers to the minimum concentration of the antimicrobial needed to reduce at least 50% of the microbial growth compared to the untreated control. The MIC50 was assessed by optical density readings at 600 nm (O.D.600).
(§2) Synergistic interactions between antimicrobials were determined using the fractional inhibition concentration (FIC). The FIC values were calculated as follows: the sum of the FIC =FICa+FICb+FICc, where the FICa means MIC of A in combination/MIC of A alone, FICb means MIC of B in combination/MIC of B, and FICc means MIC of C in combination/MIC of C alone. Effects were considered as synergistic if FIC was ≤0.5 for two components mixture and ≤0.75 for three components mixture.

[3] = test system: S. aureus Newman; test: as above; assay type: cell-based, Staphylococcus aureus; conditions: for MIC50: individual component
Experimental: as §1, §2

[4] = test system: S. aureus ATTC 10832; test: as above; assay type: cell-based, Staphylococcus aureus
Experimental: as §1, §2

[5] = test system: S. aureus USA 300; test: as above; assay type: cell-based, Staphylococcus aureus
Experimental: as §1, §2

[6] = test system: S. aureus ATTC 33591; test: as above; assay type: cell-based, Staphylococcus aureus
Experimental: as §1, §2

[7] = test system: S. haemoliticus NVH 409; test: organism not typed; assay type: cell-based
Experimental: (§3) Antimicrobial activity was measured using the AAMP assay (Wiegand et al., 2008, Nat. Protoc., Vol. 3(2), p 163-175).
(§4) Synergy testing was done with a microtiter plate checkerboard assay as previously described (Orhan et al., 2005, J. Clin. Microbiol., Vol. 43(1), p 140-143). Briefly, equal amounts of antimicrobial A were applied on microtiter plate 1 in wells A1-H1 and then diluted two-fold to wells 2-12. Similarly, equal amounts of antimicrobial B were applied on microtiter plate 2 in wells A1-A12 and diluted two-fold in wells B-H. Volumes of 50 μl of antimicrobial A from each well of microtiter plate 1 were transferred into microtiter plate 3, except for wells H1-H12. Similarly, the same volumes were transferred from microtiter plate 2 into plate 3, except for wells A1-A8. A 100 μl volume of 25 times diluted ON bacterial culture of MRSA was transferred into each well of plate 3. A 50 μl volume of pure broth was added into each well in lines H1-H12 and A1-A8 which were used to estimate MIC values of pure substances (blank).
(§5) Antimicrobial activity was measured using the AAMP assay as described in Example 2.
(§6) Synergy testing was performed as in Example 2.

[8] = test system: S. pseudintermedius MRSP 45; test: microbe, parasite or virus in culture; assay type: cell-based, Staphylococcus pseudintermedius; conditions: Staphylococcus pseudintermedius, MRSP45, MRSP 45, 24 h, read-out: MIC, single component
Experimental: as §3, §4, §5, §6

[9] = test system: lactococci, listeria and enterococci; test: MIC against other indicators (data not shown); assay type: cell-based
Experimental: as §3

[10] = test system: S. aureus biofilms; test: BOAT followed by CFU counting; assay type: cell-based, Staphylococcus aureus; conditions: 5 mg/ml garvicin KS, 0.1 mg/ml micrococcin P1, 10 mg/ml penicillin G
Experimental: The procedure for the BOAT assay was repeated as described above except that instead of adding the TTC solution, the antimicrobial-challenged cells were resuspended in TSB and then serially diluted in TSB buffer. Serial dilutions of the bacterial cells were than plated on BHI agar plates and incubated at 37° C. for 24 h. The results were then assessed by direct counting of the developed colonies and the colony forming unit (CFU) was determined.

[11] = Staphylococcus aureus, read-out: MIC50
[12] = garvicin KS + micrococcin P1 + penicillin G
[13] = Staphylococcus aureus, ATTC10832, individual component, read-out: MIC50
[14] = Staphylococcus aureus, USA300, individual component, read-out: MIC50
[15] = Staphylococcus aureus, ATTC33591, individual component, read-out: MIC50

Which results are given for C/C=C(\NC(=O)c1csc(-c2csc(-c3ccc4c(n3)-c3csc(n3)[C@H]([C@@H](C)O)NC(=O)c3csc(n3)[C@H](C(C)C)NC(=O)c3csc(n3)/C(=C/C)NC(=O)[C@H]([C@@H](C)O)NC(=O)c3csc-4n3)n2)n1)C(=O)NC[C@@H](C)O [MP1, micrococcin P1]?
resistance development on agar plates [1]: resistant colonies of MRSA appeared within the inhibition zones; MIC50 [2, 11]: 10 µg/mL; MIC50 of the component in combination ([2]; garvicin KS + micrococcin P1): 0.0013 mg/mL; MIC50 of the component in combination [2, 12]: <7.8e-05 mg/mL; MIC50 [3, 11]: 0.313 µg/mL; MIC50 of the component in combination ([3]; garvicin KS + micrococcin P1): 0.313 µg/mL; MIC50 of the component in combination [3, 12]: <0.078 µg/mL; MIC50 [4, 13]: 0.63 µg/mL; MIC50 of the component in combination ([4]; garvicin KS + micrococcin P1): 0.63 µg/mL; MIC50 of the component in combination [4, 12]: <0.078 µg/mL; MIC50 [5, 14]: 0.63 µg/mL; MIC50 of the component in combination ([5]; garvicin KS + micrococcin P1): 0.156 µg/mL; MIC50 of the component in combination [5, 12]: 0.63 µg/mL; MIC50 [6, 15]: > 10 µg/mL; MIC50 of the component in combination ([6]; garvicin KS + micrococcin P1): 1.3 µg/mL; MIC50 of the component in combination [6, 12]: 1.3 µg/mL; MIC ([7]; S. haemoliticus NVH 409, read-out: MIC, single antimicrobial): 1.25 µg/mL; MIC ([8]; Table 8): > 2.5 µg/mL; MIC values, range [9]: 1 to 10 µg/mL

For CC1(C)S[C@@H]2[C@H](NC(=O)Cc3ccccc3)C(=O)N2[C@H]1C(=O)O [Penicillin G], which MIC50 [2, 11] is on record?
Its MIC50 is less than 7.8 µg/mL.

What about the “MIC50 of the component in combination” value [2, 12] of the same molecule?
The value was less than 0.0078 mg/mL.

What about the “MIC50 of the component in combination” value ([2]; garvicin KS + penicillin G) of the same molecule?
The value was less than 0.0078 mg/mL.

And the MIC50 [3, 11]?
Its MIC50 is less than 7.8 µg/mL.

And the “MIC50 of the component in combination” value [3, 12]?
Its value is less than 7.8 µg/mL.

What about the “MIC50 of the component in combination” value ([3]; garvicin KS + penicillin G) of the same molecule?
The value was less than 7.8 µg/mL.

And the MIC50 [4, 13]?
Its MIC50 is less than 7.8 µg/mL.

And the “MIC50 of the component in combination” value [4, 12]?
Its value is less than 7.8 µg/mL.

What about the “MIC50 of the component in combination” value ([4]; garvicin KS + penicillin G) of the same molecule?
Its value is less than 7.8 µg/mL.

And the MIC50 [5, 14]?
Its MIC50 is greater than 1000 µg/mL.

And the “MIC50 of the component in combination” value [5, 12]?
Its value is 63 µg/mL.

What about the “MIC50 of the component in combination” value ([5]; garvicin KS + penicillin G) of the same molecule?
Its value is 250 µg/mL.

And the MIC50 [6, 15]?
The MIC50 was greater than 1000 µg/mL.

And the “MIC50 of the component in combination” value [6, 12]?
Its value is 130 µg/mL.

And the “MIC50 of the component in combination” value ([6]; garvicin KS + penicillin G)?
Its value is 500 µg/mL.

And the “cell viability, LogCFU after BOAT” value [10]?
Its value is “reduction in the viability of the non-MRSA strains”.

And the MIC ([8]; Table 9)?
Its MIC is greater than 125 µg/mL.

For “MKFKFNPTGTIVKKLTQYEINWYKQQYGRYPWERPVA [Hybrid K1-EJ]”, which “MIC, single antimicrobial” value [7] is on record?
The value was greater than 25 µg/mL.

What about the “MIC of MP1 in comb. with the labelled antimicrobial” value ([7]; S. haemoliticus NVH 409) of the same molecule?
Its value is 0.08 µg/mL.

What about the “MIC of the labelled antimicrobial in comb. with MP1” value ([7]; S. haemoliticus NVH 409) of the same molecule?
The value was 3 µg/mL.

B1: Garvicin KS: three-peptide leaderless bacteriocin (GarA, GarB, GarC; SEQ ID NO:6-8), peptides synthesized (peptide, listed as Lactococcus garvieae)
chain 1: MGAIIKAGAKIVGKGVLGGGASWLGWNVGEKIWK
chain 2: MGAIIKAGAKIIGKGLLGGAAGGATYGGLKKIFG
chain 3: MGAIIKAGAKIVGKGALTGGGVWLAEKLFGGK
With B1 as the molecule, how does the “resistance development on agar plates” value [1] read?
The value was “resistant colonies of MRSA appeared within the inhibition zones”.

And the “MIC50 of the component in combination” value ([2]; garvicin KS + micrococcin P1)?
The value was 0.013 mg/mL.

What about the “MIC50 of the component in combination” value [2, 12] of the same molecule?
Its value is <7.8 × 10^−4. mg/ml.

And the “MIC50 of the component in combination” value ([2]; garvicin KS + penicillin G)?
The value was less than 0.00078 mg/mL.

What about the MIC50 [2] of the same molecule?
Its MIC50 is 25 µg/mL.

And the “MIC50 of the component in combination” value ([3]; garvicin KS + micrococcin P1)?
Its value is 3.13 µg/mL.

And the “MIC50 of the component in combination” value [3, 12]?
Its value is less than 0.78 µg/mL.

What about the “MIC50 of the component in combination” value ([3]; garvicin KS + penicillin G) of the same molecule?
Its value is less than 0.78 µg/mL.

And the MIC50 [3]?
The MIC50 was 25 µg/mL.

And the “MIC50 of the component in combination” value ([4]; garvicin KS + micrococcin P1)?
The value was 6.3 µg/mL.

What about the “MIC50 of the component in combination” value [4, 12] of the same molecule?
The value was less than 0.78 µg/mL.

What about the “MIC50 of the component in combination” value ([4]; garvicin KS + penicillin G) of the same molecule?
Its value is less than 0.78 µg/mL.

And the MIC50 ([4]; individual component)?
Its MIC50 is 25 µg/mL.

And the “MIC50 of the component in combination” value ([5]; garvicin KS + micrococcin P1)?
The value was 1.56 µg/mL.

What about the “MIC50 of the component in combination” value [5, 12] of the same molecule?
The value was 6.3 µg/mL.

And the “MIC50 of the component in combination” value ([5]; garvicin KS + penicillin G)?
Its value is 25 µg/mL.

What about the MIC50 ([5]; individual component) of the same molecule?
The MIC50 was 25 µg/mL.

And the “MIC50 of the component in combination” value ([6]; garvicin KS + micrococcin P1)?
Its value is 13 µg/mL.

What about the “MIC50 of the component in combination” value [6, 12] of the same molecule?
The value was 13 µg/mL.

And the “MIC50 of the component in combination” value ([6]; garvicin KS + penicillin G)?
The value was 50 µg/mL.

What about the MIC50 ([6]; individual component) of the same molecule?
The MIC50 was 50 µg/mL.

And the “cell viability, LogCFU after BOAT” value [10]?
The value was “most dramatic reduction in LogCFU levels for all the strains”.

And the “MIC values, range” value [9]?
The value was 1 to 20 µg/mL.
